From patent publication US5120752A, “Cyclopropyl derivative lipoxygenase inhibitors” (Abbott Laboratories, priority 1990, dated 1992) come the findings set out here.

Structures are written as SMILES.

One may read the IC50 as the concentration that gives 50% inhibition.

In this assay the target is T1, 5-lipoxygenase (Rattus norvegicus, UniProt P12527).
T1 construct: 20,000×g supernatant from 1.5 million homogenized RBL-1 cells; endogenous in cells; host or cells: RBL-1 cells (20,000×g supernatant of homogenate)
T1 sequence (P12527 1-673): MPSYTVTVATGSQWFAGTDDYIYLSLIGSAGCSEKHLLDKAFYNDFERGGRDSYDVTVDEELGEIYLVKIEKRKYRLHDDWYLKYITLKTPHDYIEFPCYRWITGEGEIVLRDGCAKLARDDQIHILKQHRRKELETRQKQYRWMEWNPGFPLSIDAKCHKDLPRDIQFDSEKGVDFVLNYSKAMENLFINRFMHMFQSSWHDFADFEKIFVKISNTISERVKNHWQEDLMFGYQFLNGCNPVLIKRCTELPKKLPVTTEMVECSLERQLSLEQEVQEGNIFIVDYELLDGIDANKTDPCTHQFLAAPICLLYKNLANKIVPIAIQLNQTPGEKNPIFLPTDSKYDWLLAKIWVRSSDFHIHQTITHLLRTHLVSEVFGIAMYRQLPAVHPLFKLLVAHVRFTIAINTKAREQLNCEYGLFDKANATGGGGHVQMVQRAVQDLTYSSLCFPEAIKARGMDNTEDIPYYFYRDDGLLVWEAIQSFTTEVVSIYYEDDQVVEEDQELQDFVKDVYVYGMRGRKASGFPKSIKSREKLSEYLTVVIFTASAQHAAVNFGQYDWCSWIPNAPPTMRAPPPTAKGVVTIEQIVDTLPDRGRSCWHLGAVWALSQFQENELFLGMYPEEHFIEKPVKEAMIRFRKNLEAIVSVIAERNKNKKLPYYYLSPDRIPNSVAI
Description: In vitro inhibition of 5-lipoxygenase (20,000×g supernatant from homogenized RBL-1 cells, radiolabeled arachidonic acid). Format: biochemical. Conditions: 20,000×g supernatant of RBL-1 cells; triplicate; read-out: IC50 (in vitro inhibitory potency against 5-lipoxygenase). The procedure:
Assays to determine 5-lipoxygenase inhibitory activity were performed in […] incubations containing the 20,000×g supernatant from 1.5 million homogenized RBL-1 cells and various concentrations of the test compound. Reactions were initiated by addition of radiolabeled arachidonic acid and terminated by acidification and ether extraction. Reaction products were separated from nonconverted substrate by thin layer chromatography and measured by liquid scintillation spectroscopy. All incubations were performed in triplicate. Inhibition of 5-lipoxygenase activity was calculated as the ratio of the amount of product formed in the presence and absence of inhibitor. IC50 values (concentration of compound producing 50% enzyme inhibition) were calculated by linear regression analysis of percentage inhibition versus log inhibitor concentration plots. (Dyer, R .D.; Haviv, F.; Hanel, A. M.; Bornemier, D. A.; Carter, G. W. Fed. Proc., Fed. Am. Soc. Exp. Biol. 1984, 43, 1462A).
On to `COc1ccc2cc([C@@H]3C[C@H]3CN(O)C(N)=O)ccc2c1` (relative stereo) [Example 18, N-(1-trans-(2-(6-methoxy-2-naphthyl)cyclopropyl)methyl)-N-hydroxyurea], for which the half-inhibitory concentration (IC50) was 200 nM.

Consider `CC(C)Cc1ccc([C@@H]2C[C@H]2CN(O)C(N)=O)cc1` (relative stereo) [Example 20, N-(1-trans-(2-(4-(2-methyl-1-propyl)phenyl)cyclopropyl)-methyl)-N-hydroxyurea], for which the half-maximal inhibitory concentration (IC50) stood at 80 nM.

As for `NC(=O)N(O)C[C@@H]1C[C@H]1c1ccc(OCc2ccccc2)cc1` (relative stereo) [Example 21, N-(1-trans-(2-(4-(phenylmethoxy)phenyl)cyclopropyl)methyl)-N-hydroxyurea], the half-inhibitory concentration (IC50) was found to be 50 nM.

With `CN(O)C(=O)[C@@H]1C[C@H]1c1cccc(Oc2ccccc2)c1` (relative stereo) [Example 30], the IC50 is 100 nM.

On to `CN(O)C(=O)[C@@H]1C[C@H]1c1ccccc1` (relative stereo) [Example 31, N-methyl-N-hydroxy-trans-2-phenylcyclopropyl carboxamide], for which the IC50 was found to be 1400 nM.

For the compound `NC(=O)N(O)C[C@@H]1C[C@H]1c1ccc(Oc2ccccc2)cc1` (relative stereo) [Example 36, N-(1-trans-(2-(4-phenoxyphenyl)cyclopropyl)methyl)-N-hydroxyurea], the half-inhibitory concentration (IC50) was 60 nM.

On to `CC(=O)N(O)C[C@@H]1C[C@H]1c1ccc(Br)cc1` (relative stereo) [Example 38, N-(1-trans-(2-(4-bromophenyl)cyclopropyl)methyl)-N-hydroxyacetamide], for which the IC50 worked out at 30 nM.

As to `NC(=O)N(O)C[C@@H]1C[C@H]1c1cccnc1` (relative stereo) [Example 42], the IC50 was determined as 1600 nM.

Turning to `NC(=O)N(O)C[C@@H]1C[C@H]1c1ccncc1` (relative stereo) [Example 43, N-(1-trans-(2-(4-pyridyl)cyclopropyl)methyl)-N-hydroxyurea], the IC50 is 5700 nM.

Turning to `CC(=O)N(O)C[C@@H]1C[C@H]1c1ccc(C)cc1` (relative stereo) [Example 46, N-(1-trans-(2-(4-methylphenyl)cyclopropyl)methyl)-N-hydroxyacetamide], the IC50 turned out to be 300 nM.

In the case of `NC(=O)N(O)C[C@@H]1C[C@H]1c1cccc(Oc2ccccn2)c1` (relative stereo) [Example 48, N-(1-trans-(2-(3-(2-pyridyloxy)phenyl)cyclopropyl)methyl)-N-hydroxyurea], the concentration for half-maximal inhibition (IC50) was 400 nM.

Turning to `NC(=O)N(O)C[C@@H]1C[C@H]1c1cccc(Oc2ccncc2)c1` (relative stereo) [Example 49, N-(trans-(2-(3-(4-pyridyloxy)phenyl)cyclopropyl)methyl)-N-hydroxyurea], the IC50 was found to be 400 nM.

Turning to `NC(=O)N(O)C[C@@H]1C[C@H]1c1cccc(Oc2ccc(F)cc2)c1` (relative stereo) [Example 50, N-(1-trans-(2-(3-(4-fluorophenoxy)phenyl)cyclopropyl)methyl)-N-hydroxyurea], the IC50 stood at 100 nM.

For the compound `Cc1ccc(Oc2cccc([C@@H]3C[C@H]3CN(O)C(N)=O)c2)cc1` (relative stereo) [Example 51, N-(1-trans-(2-(3-(4-methylphenoxy)phenyl)cyclopropyl)methyl)-N-hydroxyurea], the half-maximal inhibitory concentration (IC50) is 60 nM.

On to `COc1ccc(Oc2cccc([C@@H]3C[C@H]3CN(O)C(N)=O)c2)cc1` (relative stereo) [Example 53, N-(1-trans-(2-(3-(4-methoxyphenoxy)phenyl)cyclopropyl)-methyl)-N-hydroxyurea], for which the half-inhibitory concentration (IC50) amounted to 100 nM.

As to `NC(=O)N(O)C[C@@H]1C[C@H]1c1cccc(Oc2ccc(OCc3ccccc3)cc2)c1` (relative stereo) [Example 54, N-(1-trans-(2-(3-(4-benzyloxyphenoxy)phenyl)cyclopropyl)-methyl)-N-hydroxyurea], the half-inhibitory concentration (IC50) is 300 nM.

Consider `Cc1cc([C@@H]2C[C@H]2CN(O)C(N)=O)ccc1Oc1ccccc1` (relative stereo) [Example 56, N-(1-trans-(2-(3-methyl-4-phenoxy)phenylcylclopropyl)methyl)-N-hydroxyurea], for which the IC50 came to 200 nM.

Turning to `COc1ccc([C@@H]2C[C@H]2CN(O)C(N)=O)cc1` (relative stereo) [Example 60, N-(1-trans-(2-(4-methoxyphenyl)cyclopropyl)methyl)-N-hydroxyurea], the IC50 is 1500 nM.

With `Cc1ccc([C@@H]2C[C@H]2CN(O)C(N)=O)cc1Oc1ccccc1` (relative stereo) [Example 61, N-(1-trans-(2-(4-methyl-3-phenoxyphenyl)cyclopropyl)methyl)-N-hydroxyurea], the IC50 is 200 nM.

Consider `Cc1cccc([C@@H]2C[C@H]2CN(O)C(N)=O)n1` (relative stereo) [Example 62, N-(1-trans-(2-(6-methyl-2-pyridyl)cyclopropyl)methyl)-N-hydroxyurea], for which the concentration for half-maximal inhibition (IC50) was found to be 7600 nM.

`CC(C)c1ccc([C@@H]2C[C@H]2CN(O)C(N)=O)cc1` (relative stereo) [Example 63]: the IC50 is 300 nM.

On to `CC(C)Oc1cccc([C@@H]2C[C@H]2CN(O)C(N)=O)c1` (relative stereo) [Example 64], for which the IC50 came out at 1000 nM.

For `CC(C)Oc1ccc([C@@H]2C[C@H]2CN(O)C(N)=O)cc1Br` (relative stereo) [Example 66, N-(1-trans-(2-(3-bromo-4-isopropoxyphenyl)cyclopropyl)-methyl)-N-hydroxyurea], the half-maximal inhibitory concentration (IC50) was determined as 440 nM.

For the compound `CC(C)Oc1ccc([C@@H]2C[C@H]2CN(O)C(N)=O)cc1` (relative stereo) [Example 67, N-(1-trans-(2-(4-isopropoxyphenyl)cyclopropyl)methyl)-N-hydroxyurea], the 50% inhibitory concentration (IC50) amounted to 400 nM.

As to `CC([C@@H]1C[C@H]1c1cc2ccccc2s1)N(O)C(N)=O` (single isomer, unassigned) [Example 1a, N-(1-trans-(2-(benzo[b]thien-2-yl)cyclopropyl)ethyl)-N-hydroxyurea], the half-inhibitory concentration (IC50) is 300 nM.

Consider `CC([C@@H]1C[C@H]1c1cc2ccccc2s1)N(O)C(N)=O` (single isomer, unassigned) [Example 1b, N-(1-trans-(2-(benzo[b]thien-2-yl)cyclopropyl)ethyl)-N-hydroxyurea], for which the IC50 was 200 nM.

Consider `CC(=O)N(O)C(C)[C@@H]1C[C@H]1c1ccc(Br)cc1` (single isomer, unassigned) [Example 44, N-(1-trans-(2-(4-bromophenyl)cyclopropyl)ethyl)-N-hydroxyacetamide], for which the IC50 is 100 nM.

For `CC([C@@H]1C[C@H]1c1ccc(Oc2ccccc2)cc1)N(O)C(N)=O` (stereo partly drawn) [Example 2, N-(1-trans-(2-(4-phenoxyphenyl)cyclopropyl)ethyl)-N-hydroxyurea], the half-maximal inhibitory concentration (IC50) stood at 100 nM.

Turning to `CC(Oc1ccc([C@@H]2C[C@H]2C(C)N(O)C(N)=O)cc1)c1ccccc1` (stereo partly drawn) [Example 7, N-(1-trans-(2-(4-(1-phenylethoxy)phenyl)cyclopropyl)ethyl)-N-hydroxyurea], the IC50 is 400 nM.

Take `CNC(=O)N(O)C(C)[C@@H]1C[C@H]1c1cc2ccccc2s1` (stereo partly drawn) [Example 8, N-(1-trans-(2-(benzo[b]thien-2-yl)cyclopropyl)ethyl)-N-hydroxy-N'-methylure]: the IC50 came out at 200 nM.

Turning to `CC([C@@H]1C[C@H]1c1ccc(OCc2ccccc2)cc1)N(O)C(N)=O` (stereo partly drawn) [Example 14, N-(1-trans-(2-(4-(phenylmethoxy)phenyl)cyclopropyl)ethyl)-N-hydroxyurea], the IC50 is 130 nM.
